Assay results as given in EP4810052A2, “HCRHR2 SELECTIVE POLYPEPTIDES” (Gubra A/S, priority 2023, dated 2026).
Where two headings read alike, the source gives them in different places. Starred links: 1 amine or outer side, 2 acyl side, 3 side chain; linkers in the order of their positions; H or OH if unused. Non-standard residues stand in square brackets, D forms with d. Residues, ends and D or L forms follow the SMILES beside them. Groups on a side chain read outwards from the residue. *: point of attachment. C20 diacid = O=C(O)CCCCCCCCCCCCCCCCCCC(=O)*; γGlu = O=C(O)[C@H](CCC(=O)[*:2])N[*:1]; NMeI = CC[C@H](C)[C@H](NC)C(=O)O; Nle = CCCC[C@H](N)C(=O)O; AEEA = NCCOCCOCC(=O)O; Aib = CC(C)(N)C(=O)O

What was measured:
PK in minipigs = conditions: male, Göttingen, minipig, in vivo; for half-life: iv, read-out: T½ (converted); for half-life / Cmax / Tmax: Pig; for bioavailability / Cmax / Tmax: sc; for Cmax / Tmax: 6.0 nmol/kg s.c
Description: Pharmacokinetics studies were determined in male Göttingen minipigs from Ellegaard Göttingen Minipigs A/S. Animals were acclimatised for at least 7 days before placed on study. The minipigs had prior to study been surgically implanted with central venous catheters inserted which were used for blood sampling. Animals were housed under a 12/12 h dark-light cycle with ad libitum access to domestic water and animals were fed a commercially standard maintenance diet twice daily.
Test compounds where administrated either as a cassette or as a single compound. Test compounds were administrated by a single intravenous injection or short infusion (5-10 min) through the implanted catheter or a single subcutaneously injection. The subcutaneously injection was given in the mid neck between ear and scapula with a stopper on the needle, allowing 0.5 cm of the needle to be inserted.Plasma concentration-time profiles employing 12-16 sampling points were obtained from each animal. As an example, blood samples were collected on the following times: 0 (predose), 0.17, 0.33, 0.5, 1, 2, 5, 6, 24, 48, 72, 92, 168, 240 and 336 hrs post administration. Approximately 2 mL blood was drawn from the central catheter from each animal at each sampling point. Blood samples were taken in K2 or K3 EDTA tubes. Blood was kept on ice for maximum 30 min before centrifugation (10 min, 4°C, 2000 x g). Approximately 200 µL plasma samples was transferred to a Micronic tube and stored at -20° or lower.
Pharmacokinetics parameters were calculated by non-compartmental analysis (NCA) of the individual plasma concentrations-time profile from the animals. The log-linear trapezoidal method was used for estimation of AUC and AUMC. The terminal T½ was determined as In(2)/λz where λz is the first order rate constant as determined by the terminal log-linear part of the curve.
Plasma concentrations were measured by LC-MSMS using electrospray ionization and multiple reaction monitoring. Calibration standards and quality control (QC) samples were prepared in specie match matrix. 15 µL calibration standards, QC and study samples were extracted by protein precipitation using 60 µL methanol followed by addition of 45 µL milliQ water. Samples were shaken (800 rpm) at room temperature for 5 min before centrifugation (2570×g, 40 min, 4°C) and the supernatant was transferred to a LoBind PCR plate. Samples were analysed on a Thermo Triscend UHPLC system coupled to a Sciex API 6500+ mass spectrometer. Samples were subject to online SPE clean-up on a HLB column (1×50 mm, Waters) before loaded onto a Aeris Peptide XB C18 column (3.6 µm, 100 Å, 2×50 mm, Phenomenex) analytical column. The mobile phases consisted of acetonitrile and milliQ H2O both containing 0.1% V/V formic acid. The flow rate was 0.60 mL/min and the column was kept at room temperature.

hCRHR1 = biological target: T1, hCRHR1 (Homo sapiens, UniProt P34998); assay: cAMP potency, transiently transfected CHO-K1 cells, hCRHR1; type: cell-based; set-up: DYK (FLAG); host or cells: CHO-K1, transiently transfected; conditions: transiently transfected CHO-K1, average n=3; read-out: Transient cell system EC50 (nM) hCR HR1
T1 sequence (P34998 24-415): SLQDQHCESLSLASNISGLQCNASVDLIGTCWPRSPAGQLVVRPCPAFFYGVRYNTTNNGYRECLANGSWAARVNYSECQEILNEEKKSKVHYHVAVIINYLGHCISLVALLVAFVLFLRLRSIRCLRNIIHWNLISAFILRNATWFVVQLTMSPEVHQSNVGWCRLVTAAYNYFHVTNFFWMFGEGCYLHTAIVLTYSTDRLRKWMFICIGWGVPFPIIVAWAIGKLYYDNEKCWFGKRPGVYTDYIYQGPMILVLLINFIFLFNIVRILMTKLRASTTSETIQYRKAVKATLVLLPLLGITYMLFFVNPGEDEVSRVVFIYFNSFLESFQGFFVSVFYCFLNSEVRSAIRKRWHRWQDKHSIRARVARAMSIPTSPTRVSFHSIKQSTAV

pCRHR1 = assay: cAMP potency, transiently transfected CHO-K1 cells, pCRHR1; type: cell-based, pig; conditions: transiently transfected CHO-K1, average n=3; read-out: Transient cell system EC50 (nM) pCRHR 1
Description: (§1) Selected peptides were tested for potency on different species (mouse, rat, porcine) using transiently transfected CHO-K1 cells using the general procedure.

mCRHR2 = biological target: T2, mCRHR2 (Mus musculus, UniProt Q60748); assay: cAMP potency, transiently transfected CHO-K1 cells, mCRHR2; type: cell-based; conditions: transiently transfected CHO-K1, average n=3; read-out: Transient cell system EC50 (nM) mCRH R2
T2 construct: DYK (FLAG); host or cells: CHO-K1, transiently transfected
T2 sequence (Q60748 1-431 isoform Q60748-2): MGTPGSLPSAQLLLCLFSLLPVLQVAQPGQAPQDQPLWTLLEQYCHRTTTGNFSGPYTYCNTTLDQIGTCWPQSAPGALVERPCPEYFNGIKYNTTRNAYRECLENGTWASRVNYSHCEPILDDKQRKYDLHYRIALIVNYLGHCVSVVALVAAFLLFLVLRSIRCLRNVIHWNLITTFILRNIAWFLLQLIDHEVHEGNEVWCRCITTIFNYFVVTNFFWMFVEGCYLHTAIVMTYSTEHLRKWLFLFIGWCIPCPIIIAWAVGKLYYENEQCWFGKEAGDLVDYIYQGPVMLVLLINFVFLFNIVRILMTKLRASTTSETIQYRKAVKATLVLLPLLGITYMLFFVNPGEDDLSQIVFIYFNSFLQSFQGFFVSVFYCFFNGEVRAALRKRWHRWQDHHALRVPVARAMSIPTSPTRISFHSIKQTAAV
Description: as §1

Row | Compound | half-life (PK in minipigs; 6.0 nmol/kg i.v.) | bioavailability (PK in minipigs) | Cmax (PK in minipigs) | Tmax (PK in minipigs) | EC50 (hCRHR1) | EC50 (pCRHR1) | EC50 (mCRHR2) | half-life (PK in minipigs; 4.6 nmol/kg i.v.) | half-life (PK in minipigs; 5.8 nmol/kg i.v.)
1 | CC[C@H](C)[C@H](N)C(=O)N[C@H](C(=O)N[C@@H](CC(C)C)C(=O)N[C@@H](CO)C(=O)N[C@@H](CC(C)C)C(=O)N[C@@H](CC(=O)O)C(=O)N[C@H](C(=O)N1CCC[C@H]1C(=O)N[C@H](C(=O)NCC(=O)N[C@@H](CC(C)C)C(=O)N[C@@H](CC(C)C)C(=O)N[C@@H](CCC(N)=O)C(=O)N[C@H](C(=O)N[C@@H](CC(C)C)C(=O)N[C@@H](CC(C)C)C(=O)N[C@@H](CCC(=O)O)C(=O)N[C@@H](CCC(N)=O)C(=O)N[C@@H](C)C(=O)N[C@@H](CCCNC(=N)N)C(=O)N[C@@H](C)C(=O)N[C@@H](CCCNC(=N)N)C(=O)N[C@@H](C)C(=O)N[C@@H](C)C(=O)N[C@@H](CCCNC(=N)N)C(=O)N[C@@H](CCC(=O)O)C(=O)N[C@@H](CCC(N)=O)C(=O)N[C@@H](C)C(=O)N[C@@H](CCCCNC(=O)COCCOCCNC(=O)COCCOCCNC(=O)CC[C@H](NC(=O)CC[C@H](NC(=O)CCCCCCCCCCCCCCCCCCC(=O)O)C(=O)O)C(=O)O)C(=O)N[C@H](C(=O)N[C@@H](CC(N)=O)C(=O)N[C@@H](C)C(=O)N[C@@H](CCC(=O)O)C(=O)N[C@H](C(=O)N[C@@H](CC(C)C)C(=O)N[C@@H](C)C(=O)N[C@@H](CCC(=O)O)C(=O)N[C@H](C(N)=O)C(C)C)[C@@H](C)CC)[C@@H](C)O)[C@@H](C)CC)[C@@H](C)CC)C(C)C)C(C)C [SEQ ID NO: 3] (H-IVLSLDVPIGLLQILLEQARARAAREQAK([AEEA-AEEA-γGlu-γGlu-C20 diacid])TNAEILAEV-NH2) | 156 h | 55% | 60 nM | 24 h | > 1000 nM | > 5000 nM | 0.0054 nM | – | –
2 | CC[C@H](C)[C@H](NC)C(=O)N[C@H](C(=O)N[C@@H](CC(C)C)C(=O)N[C@@H](CO)C(=O)N[C@@H](CC(C)C)C(=O)N[C@@H](CC(=O)O)C(=O)N[C@H](C(=O)N1CCC[C@H]1C(=O)N[C@H](C(=O)NCC(=O)N[C@@H](CC(C)C)C(=O)N[C@@H](CC(C)C)C(=O)N[C@@H](CCC(N)=O)C(=O)N[C@H](C(=O)N[C@@H](CC(C)C)C(=O)N[C@@H](CC(C)C)C(=O)N[C@@H](CCC(=O)O)C(=O)N[C@@H](CCC(N)=O)C(=O)N[C@@H](C)C(=O)N[C@@H](CCCNC(=N)N)C(=O)N[C@@H](C)C(=O)N[C@@H](CCCNC(=N)N)C(=O)N[C@@H](C)C(=O)N[C@@H](C)C(=O)N[C@@H](CCCNC(=N)N)C(=O)N[C@@H](CCC(=O)O)C(=O)N[C@@H](CCC(N)=O)C(=O)N[C@@H](C)C(=O)N[C@@H](CCCCNC(=O)COCCOCCNC(=O)COCCOCCNC(=O)CC[C@H](NC(=O)CC[C@H](NC(=O)CCCCCCCCCCCCCCCCCCC(=O)O)C(=O)O)C(=O)O)C(=O)N[C@H](C(=O)N[C@@H](CC(N)=O)C(=O)NC(C)(C)C(=O)N[C@@H](CCC(=O)O)C(=O)N[C@H](C(=O)N[C@@H](CC(C)C)C(=O)N[C@@H](C)C(=O)N[C@@H](CCC(=O)O)C(=O)N[C@H](C(N)=O)C(C)C)[C@@H](C)CC)[C@@H](C)O)[C@@H](C)CC)[C@@H](C)CC)C(C)C)C(C)C [SEQ ID NO: 16] (H-[NMeI]VLSLDVPIGLLQILLEQARARAAREQAK([AEEA-AEEA-γGlu-γGlu-C20 diacid])TN[Aib]EILAEV-NH2) | – | 66% | 35 nM | 48 h | > 1000 nM | > 5000 nM | 0.0049 nM | 208 h | –
3 | CC[C@H](C)[C@H](NC)C(=O)N[C@H](C(=O)N[C@@H](CC(C)C)C(=O)N[C@@H](CO)C(=O)N[C@@H](CC(C)C)C(=O)N[C@@H](CC(=O)O)C(=O)N[C@H](C(=O)N1CCC[C@H]1C(=O)N[C@H](C(=O)NCC(=O)N[C@@H](CC(C)C)C(=O)N[C@@H](CC(C)C)C(=O)N[C@@H](CCC(N)=O)C(=O)N[C@H](C(=O)N[C@@H](CC(C)C)C(=O)N[C@@H](CC(C)C)C(=O)N[C@@H](CCC(=O)O)C(=O)N[C@@H](CCC(N)=O)C(=O)N[C@@H](C)C(=O)N[C@@H](CCCNC(=N)N)C(=O)N[C@@H](C)C(=O)N[C@@H](CCCNC(=N)N)C(=O)N[C@@H](C)C(=O)N[C@@H](C)C(=O)N[C@@H](CCCNC(=N)N)C(=O)N[C@@H](CCC(=O)O)C(=O)N[C@@H](CCC(N)=O)C(=O)N[C@@H](C)C(=O)N[C@H](C(=O)N[C@@H](CCCCNC(=O)COCCOCCNC(=O)COCCOCCNC(=O)CC[C@H](NC(=O)CC[C@H](NC(=O)CCCCCCCCCCCCCCCCCCC(=O)O)C(=O)O)C(=O)O)C(=O)N[C@@H](CC(N)=O)C(=O)N[C@@H](C)C(=O)N[C@@H](CCC(=O)O)C(=O)N[C@H](C(=O)N[C@@H](CC(C)C)C(=O)N[C@@H](C)C(=O)N[C@@H](CCC(=O)O)C(=O)N[C@H](C(N)=O)C(C)C)[C@@H](C)CC)[C@@H](C)O)[C@@H](C)CC)[C@@H](C)CC)C(C)C)C(C)C [SEQ ID NO: 6] (H-[NMeI]VLSLDVPIGLLQILLEQARARAAREQATK([AEEA-AEEA-γGlu-γGlu-C20 diacid])NAEILAEV-NH2) | 145 h | – | – | – | > 1000 nM | > 5000 nM | 0.0043 nM | – | –
4 | CCCC[C@H](NC(=O)[C@@H](NC(=O)[C@H](CCC(=O)O)NC(=O)[C@H](C)NC(=O)[C@H](CC(N)=O)NC(=O)C(C)(C)NC(=O)[C@H](CCCCNC(=O)COCCOCCNC(=O)COCCOCCNC(=O)CC[C@H](NC(=O)CC[C@H](NC(=O)CCCCCCCCCCCCCCCCCCC(=O)O)C(=O)O)C(=O)O)NC(=O)[C@H](C)NC(=O)[C@H](CCC(N)=O)NC(=O)[C@H](CCC(=O)O)NC(=O)[C@H](CCCNC(=N)N)NC(=O)[C@H](C)NC(=O)[C@H](C)NC(=O)[C@H](CCCNC(=N)N)NC(=O)[C@H](C)NC(=O)[C@H](CCCNC(=N)N)NC(=O)[C@H](C)NC(=O)[C@H](CCC(N)=O)NC(=O)[C@H](CO)NC(=O)[C@H](CC(C)C)NC(=O)[C@H](CC(C)C)NC(=O)[C@@H](NC(=O)[C@H](CCC(N)=O)NC(=O)[C@H](CC(C)C)NC(=O)[C@H](CC(C)C)NC(=O)CNC(=O)[C@@H](NC(=O)[C@@H]1CCCN1C(=O)[C@@H](NC(=O)[C@H](CC(=O)O)NC(=O)[C@H](CC(C)C)NC(=O)[C@H](CO)NC(=O)[C@H](CC(C)C)NC(=O)[C@@H](NC(=O)[C@@H]1CCCN1)C(C)C)C(C)C)[C@@H](C)CC)[C@@H](C)CC)[C@@H](C)CC)C(=O)N[C@@H](C)C(=O)N[C@@H](CCC(=O)O)C(=O)N[C@H](C(N)=O)C(C)C [SEQ ID NO: 238] (H-PVLSLDVPIGLLQILLSQARARAAREQAK([AEEA-AEEA-γGlu-γGlu-C20 diacid])[Aib]NAEI[Nle]AEV-NH2) | – | 86% | 44 nM | 48 h | > 5000 nM | > 5000 nM | 0.0047 nM | – | 212 h
